Laboratory results reported in patent US20250154146A1, “PROTEIN DEGRADERS DEVELOPED ON BASIS OF BCL-2 FAMILY PROTEIN LIGAND COMPOUNDS AND USE THEREOF” (ShanghaiTech University, priority 2022, published 2025).
Entries after “also recorded” stand apart in the source; their conditions may differ.

Key:
Type in all cases: cell-based
RS4;11 cells = experiment: Thiazolyl blue cell proliferation assay in RS4;11 cells; conditions: Homo sapiens, RS4;11 acute lymphoblastic leukemia cells, 48 hours, read-out: IC50 (nM) for inhibiting the proliferation of RS4;11 cells
Description: (§1) The cell lines RS4;11 (human acute lymphocytic leukemia cells), Molt-4 cells (human acute lymphocytic leukemia cells), MV4;11 (human myeloid monocytic leukemia cells), and Light II cells were commercially available or purchased from ATCC (American Type Culture Collection) and routinely cultured according to instructions.
1) Study on the proliferation inhibition effects induced by the compounds of the present disclosure designed based on ABT199/263 against BCL-XL-dependent RS4;11 cells:
(§2) The specific steps were as follows: RS4;11 cells were seeded at a density of 3×10^4 cells/well in 90 μL of serum-containing RPMI-1640 culture medium. DT2216 and the compounds of the present disclosure were added to the cell suspension at corresponding concentration gradients. DT2216 and DMSO were used as positive and vehicle control, respectively. The positive control and negative control were treated with the same treatment method as the compounds of the present disclosure. After treating the cells with the compounds of the present disclosure for 48 hours, thiazole blue solution (5 mg/mL) was added at 10 μL/well to the cell suspension, followed by incubation for 3 hours at 37° C. in an incubator with 5% CO2. Then, triple solution (0.1 g/mL SDS, 5% isopropyl alcohol, 10 mM hydrochloric acid) was added, followed by incubation for 4-6 hours at 37° C. in an incubator with 5% CO2. After confirming that all the crystal violets were dissolved under inverted biological microscopy, the absorbance was measured at 490 nm using an Epoch microplate reader (Biotek Corporation). The growth inhibition of the compounds of the present disclosure on the cells was plotted by GraphPad Prism 8 software, and the IC50 values of the compounds of the present disclosure were calculated therefrom. The experiment had 3 replicates per group and was repeated at least three times.
We conducted dose-dependent experiments on the designed and synthesized compounds of the present disclosure in RS4;11 cells, which are highly sensitive to BCL-XL inhibitors. The cells were treated with 7 different concentrations (starting at the highest concentration of 1000 nM or 100 nM; 10-fold serial dilutions) of the compounds for 48 hours, and then tested using the thiazolyl blue cell proliferation assay.

BCL-XL protein = target: T1, BCL-XL protein (Homo sapiens, UniProt Q07817); experiment: Western blot of BCL-XL protein in Molt-4 cells; conditions: 100 nM, 8 h
T1 construct: endogenous in cells; host or cells: Molt-4 (human acute lymphocytic leukemia cells)
Protocol: The BCL-XL antibody used in the experiment was purchased from Abcam Company, and the Tubulin antibody was purchased from Proteintech Company.
Molt-4 cells in logarithmic growth phase seeded at a density of 3×10^6 cells/well in a 6-well plate were subjected to treatment with the compounds of the present disclosure, and DMSO was used as the vehicle control group. After […] of treatment, the cells were harvested and washed once in PBS. Cells were placed on ice and treated with IP protein lysis buffer containing PMSF protease inhibitors. After centrifugation at 4° C. (10 k rpm, 5 min), the supernatant was collected and mixed with 4×LDS protein loading buffer at a volume ratio of 3:1. The mixture of protein supernatant with loading buffer were further added with 5% β-mercaptoethanol. After incubation in a metal bath at 95° C. for 10 minutes, the protein samples was stored at −80° C. or cooled directly on ice for protein electrophoresis using 10% homemade polyacrylamide gel as separation gel. Electrophoresis tank and other related components were purchased from Bio-rad company. The electrophoresis conditions were voltage 80 V for 45 minutes, then switch to voltage 120V for further electrophoresis for 1 hour. Then protein in gel was transferred onto PVDF membrane at an isocurrent of 300 mA in an icy water bath for one hour. Afterwards, the membrane was blocked with 5% skim milk for 1 hour at room temperature. Subsequently the membrane was incubated with primary antibody at 4° C. overnight or at room temperature for 2 h, then washed with 1×TBST buffer (sodium chloride, 150 mM, Tris, 10 mM, Tween 20, 0.1%; PH 7.4) for three times, and then added with secondary antibody and incubated at room temperature for 45 min, washed with 1×TBST buffer (sodium chloride, 150 mM, Tris, 10 mM, Tween 20, 0.1%; PH 7.4) three times, and subjected to color development. The antibody dilution ratio was determined according to the antibody instructions.
Molt-4 cells were seeded into a 6-well plate at a density of 3×10^6 cells per well. The next day, the cells were treated with the compounds of the present disclosure at a concentration of 100 nM, and the control groups were treated with DMSO and DT2216, respectively. Protein were extracted after 8 hours treatment, and BCL-XL protein expression was assessed by the western blot.

MV4;11 cells = experiment: Thiazolyl blue cell proliferation assay in MV4;11 cells; conditions: Homo sapiens, MV4;11 myeloid monocytic leukemia cells, 48 hours, read-out: IC50 (nM) for inhibiting the proliferation of MV4;11 cells
Description: as §1
2) Study on the proliferation inhibition effects induced by the compounds of the present disclosure designed based on ABT199/263 against BCL-XL-dependent MV4;11 cells:
as §2, with “MV4;11” for “RS4;11”, “2×10^4” for “3×10^4”, “IMDM” for “RPMI-1640”, “µL/well” for “μL/well”

Molt-4 cells = experiment: Thiazolyl blue cell proliferation assay in Molt-4 cells; conditions: Homo sapiens, Molt-4 acute lymphocytic leukemia cells, 72 hours, read-out: IC50 (nM) for inhibiting the proliferation of Molt-4 cells
How it was run: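 BCL-XL-dependent Molt-4 cells at 2×10^4/well in serum-containing RPMI 1640 were exposed to compound concentration gradients for 72 h. Thiazolyl blue (MTT) was added for 3 h at 37° C, solubilised in SDS/isopropanol/HCl, and read at 490 nm. IC50 comes from growth-inhibition curves, triplicate, repeated ≥3 times.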

[1] = system: Hedgehog (Hh) signaling pathway; experiment: Dual-luciferase reporter assay of Hedgehog activity in Light II cells; conditions: SAG stimulation, 36 h, dual-luciferase assay reporter kit, read-out: IC50 (nM) in Light II cells (inhibiting Hedgehog activity)
Protocol: Determination of the IC50 Values of Compounds Inhibiting Hedgehog Activity—Dual-Luciferase Reporter Assay:
Light II cells were NIH3T3 cell lines that stably express the Gli-luciferase and TK-renilla reporters. They were cultured with DMEM medium containing 10% (v/v) fetal bovine serum (FBS), 0.4 mg/ml G418, 0.15 mg/ml bleomycin (Zeocin), and penicillin/streptomycin at 37° C. in an incubator with 5% CO2. Light II cells in the logarithmic growth phase were seeded at a density of 2.5×10^4 cells/well in a 96-well plate. After 24h incubation, the cells were subjected to treatment with SAG with or without different concentrations of the compounds of the present disclosure for 36 h. After that, the Hedgehog activity was measured using the dual fluorescence reporter kit according to its instructions. The experiment had 3 replicates per group and was repeated at least three times.

T1 sequence (Q07817 whole entry): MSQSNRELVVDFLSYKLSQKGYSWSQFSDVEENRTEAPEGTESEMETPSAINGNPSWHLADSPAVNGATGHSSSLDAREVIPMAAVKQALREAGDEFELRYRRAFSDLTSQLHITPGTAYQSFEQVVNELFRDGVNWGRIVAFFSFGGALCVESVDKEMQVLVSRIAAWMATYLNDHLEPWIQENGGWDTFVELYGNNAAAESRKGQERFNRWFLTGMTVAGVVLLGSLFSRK

Row | SMILES | IC50 (RS4;11 cells) | BCL-XL protein expression / degradation (western blot) (BCL-XL protein) | IC50 (MV4;11 cells) | IC50 (Molt-4 cells) | IC50 [1]
1 | CC1(C)CCC(CN2CCN(c3ccc(C(=O)NS(=O)(=O)c4ccc(NC[C@H]5CC[C@H](N6CCN(Cc7cc(Br)c8c(c7)C(=O)N(C7CCC(=O)NC7=O)C8)CC6)CC5)c([N+](=O)[O-])c4)c(Oc4cnc5[nH]ccc5c4)c3)CC2)=C(c2ccc(Cl)cc2)C1 (relative stereo) [BCL-03146, 2-((1H-pyrrolo[2,3-b]pyridin-5-yl)oxy)-N-((4-((((trans)-4-(4-((7-bromo-2-(2,6-dioxopiperidin-3-yl)-3-oxoisoindolin-5-yl)methyl)piperazin-1-yl)cyclohexyl)methyl)amino)-3-nitrophenyl)sulfonyl)-4-(4-((4′-chloro-5,5-dimethyl-3,4,5,6-tetrahydro-[1,1′-biphenyl]-2-yl)methyl)piperazin-1-yl)benzamide] | < 20 nM | significantly reduce the expression of BCL-XL protein; also recorded: significantly degraded BCL-XL protein | < 20 nM | < 10 nM | < 10 nM
2 | CC1(C)CCC(CN2CCN(c3ccc(C(=O)NS(=O)(=O)c4ccc(NC[C@H]5CC[C@H](N6CCN(Cc7ccc8c(c7)CN(C7CCC(=O)NC7=O)C8=O)CC6)CC5)c([N+](=O)[O-])c4)c(Oc4cnc5[nH]ccc5c4)c3)CC2)=C(c2ccc(Cl)cc2)C1 (relative stereo) [BCL-03147, 2-((1H-pyrrolo[2,3-b]pyridin-5-yl)oxy)-4-(4-((4′-chloro-5,5-dimethyl-3,4,5,6-tetrahydro-[1,1′-biphenyl]-2-yl)methyl)piperazin-1-yl)-N-((4-((((trans)-4-(4-((2-(2,6-dioxopiperidin-3-yl)-1-oxoisoindolin-5-yl)methyl)piperazin-1-yl)cyclohexyl)methyl)amino)-3-nitrophenyl)sulfonyl)benzamide] | < 20 nM | significantly reduce the expression of BCL-XL protein; also recorded: significantly degraded BCL-XL protein | < 20 nM | < 10 nM | < 10 nM
3 | CC1(C)CCC(CN2CCN(c3ccc(C(=O)NS(=O)(=O)c4ccc(NC[C@H]5CC[C@@H](N6CCN(Cc7ccc8c(c7)CN(C7CCC(=O)NC7=O)C8=O)CC6)CC5)c([N+](=O)[O-])c4)c(Oc4cnc5[nH]ccc5c4)c3)CC2)=C(c2ccc(Cl)cc2)C1 (relative stereo) [BCL-03148, 2-((1H-pyrrolo[2,3-b]pyridin-5-yl)oxy)-4-(4-((4′-chloro-5,5-dimethyl-3,4,5,6-tetrahydro-[1,1′-biphenyl]-2-yl)methyl)piperazin-1-yl)-N-((4-((((cis)-4-(4-((2-(2,6-dioxopiperidin-3-yl)-1-oxoisoindolin-5-yl)methyl)piperazin-1-yl)cyclohexyl)methyl)amino)-3-nitrophenyl)sulfonyl)benzamide] | < 20 nM | significantly reduce the expression of BCL-XL protein; also recorded: significantly degraded BCL-XL protein | < 20 nM | < 10 nM | < 10 nM
4 | CC1(C)CCC(CN2CCN(c3ccc(C(=O)NS(=O)(=O)c4ccc(NC[C@H]5CC[C@@H](N6CCN(Cc7cc(Br)c8c(c7)C(=O)N(C7CCC(=O)NC7=O)C8)CC6)CC5)c([N+](=O)[O-])c4)c(Oc4cnc5[nH]ccc5c4)c3)CC2)=C(c2ccc(Cl)cc2)C1 (relative stereo) [BCL-03149, 2-((1H-pyrrolo[2,3-b]pyridin-5-yl)oxy)-N-((4-((((cis)-4-(4-((7-bromo-2-(2,6-dioxopiperidin-3-yl)-3-oxoisoindolin-5-yl)methyl)piperazin-1-yl)cyclohexyl)methyl)amino)-3-nitrophenyl)sulfonyl)-4-(4-((4′-chloro-5,5-dimethyl-3,4,5,6-tetrahydro-[1,1′-biphenyl]-2-yl)methyl)piperazin-1-yl)benzamide] | < 20 nM | significantly reduce the expression of BCL-XL protein; also recorded: significantly degraded BCL-XL protein | < 20 nM | < 10 nM | < 10 nM
